From patent publication US12264349B2, “Method for producing monoterpenoid compounds” (John Innes Centre, priority 2018, dated 2025)
Where two headings read alike, the source gives them in different places.

Key:
[1] = target: T1, NEPS1-WT (Nepeta racemosa, UniProt A0A3Q8GL18); assay: NEPS1 dehydrogenase activity kinetics, spectrophotometric at 340 nm; format: biochemical, Nepeta mussinii; conditions: for Kcat or V (velocity V, single substrate concentration): substrate 1000 μM
T1 construct: made in house; host or cells: E. coli SoluBL21
T1 sequence (A0A3Q8GL18 1-271): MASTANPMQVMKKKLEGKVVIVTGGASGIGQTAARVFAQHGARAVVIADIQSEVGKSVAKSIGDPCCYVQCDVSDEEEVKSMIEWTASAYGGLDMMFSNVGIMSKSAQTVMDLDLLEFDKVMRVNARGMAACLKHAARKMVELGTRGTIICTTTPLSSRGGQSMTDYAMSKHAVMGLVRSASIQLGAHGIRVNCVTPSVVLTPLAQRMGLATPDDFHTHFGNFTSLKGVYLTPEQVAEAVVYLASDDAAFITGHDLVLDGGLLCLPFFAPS
Description: (§1) Kinetics and dehydrogenase activity measurements were conducted spectrophotometrically on a PerkinElmer Lambda 35 instrument at a wavelength of 340 nm and in cuvettes with 1 cm path length. The reactions were conducted at 25° C. and with 50 mM HEPES pH 8.0, […].
(§2) Reactions were initiated by addition of the enzyme, and absorbance values were recorded at a rate of 1 Hz. Enzyme concentration was varied from 0.025-0.25 μM to maintain a linear rate. The R software environment was used to fit linear initial rates over the first 20 s of the enzyme reaction. For Michaelis-Menten experiments, at least 8 data points were obtained for each substrate combination. The Michaelis-Menten equation was fitted to the data points in R by the nls function to obtain values for the kinetic parameters. Kinetic parameters are reported as a best fit estimate±SE. For activity measurements with NADP^+ and NADH, single substrate concentrations were employed. Velocity values (in italics) are provided as a mean of triplicate measurements±standard deviation from the mean.

[2] = Nepetalactol stability in buffer (GC-MS); format: physicochemical; conditions: 30° C.
Description: Cis-trans-nepetalactol (4a, FIG. 10A) and cis-cis-nepetalactol (4b, FIG. 10B) stability in 10 mM and 0.5 M MOPS pH 7.5. 4a appears to be stable in both these conditions. 4b appears mostly stable in 10 mM MOPS pH 7.5, but is not stable in high buffer concentrations (0.5 M MOPS pH 7.5) and degrades to form iridodials 5. Chromatograms are all GC-MS TICs, RT=retention time (min), incubation was 16 h, 30° C.
End-point assays with purified enzymes were conducted at a total volume of 100 μL. Reactions using either 8-oxogeranial 2 or 8-oxocitronellal 6 as a substrate contained 1% v/v MeCN. In experiments examining the effect of buffer concentrations, enzymes were diluted with water. Trace residual concentrations of sample buffer in the enzyme sample were too low to effect product profiles. All reactions were conducted at 30° C. Reactions containing 8-oxogeranial 2 as a substrate were incubated for 3 h, whilst reactions with 8-oxocitronellal 6 were incubated for 16 h, unless noted. At reaction termination, a camphor standard (10 μL, stock 1 mM in MeCN) and EtOAc (100 μL) were added. The reactions were vortexed, centrifuged (10,000×g, 10 min) and the organic layer was used in GC-MS analysis. The concentrations of components in reactions varied extensively and so for each reaction the Figure or Figure legend describe the exact conditions employed.
Samples were injected in split mode (2 μL, split ratio 5:1) at an inlet temperature of 220° C. on a Hewlett Packard 6890 GC-MS equipped with a 5973 mass selective detector (MSD), and an Agilent 7683B series injector and autosampler. Separation was performed on a Zebron ZB5-HT-INFERNO column (5% phenyl methyl siloxane; length: 35 m; diameter: 250 μm) with guard column. Helium was used as mobile phase at a constant flow rate of 1.2 mL/min and average velocity 37 cm/s. After 5 min at 80° C., the column temperature was increased to 110° C. at a rate of 2.5 K/min, then to 280° C. at 120 K/min, and kept at 280° C. for another 4 min. A solvent delay of 5 min was allowed before collecting MS spectra at a fragmentation energy of 70 eV. An internal standard of (+)-camphor was used for retention time calibration. Chemically characterised standards were used to identify compounds by retention time and electron impact spectra.

[3] = target: T2, NEPS1-T154G (Nepeta racemosa, UniProt A0A3Q8GL18, T154G); format: biochemical, Nepeta mussinii
T2 construct: This gene-length amplicon was gel-purified and then cloned into the pOPINF vector; made in house; host or cells: E. coli SoluBL21
Description: as §1, §2

[4] = co-substrate NAD+ 1 mM, substrate 50-750 μM
[5] = co-substrate NAD+ 1 mM, 25° C., 50 mM HEPES pH 8.0
[6] = co-substrate 4a 0.5 mM, substrate 7.8-1000 μM
[7] = co-substrate 4a 0.1 mM, substrate 1-250 μM

CC1=COC(=O)[C@H]2[C@@H]1CC[C@@H]2C (relative stereo) [1a, cis-trans-nepetalactone]
Kcat or V (velocity V, single substrate concentration) ([1]; co-substrate NADH 0.1 mM): no reaction

CC1=COC(O)[C@H]2[C@@H]1CC[C@@H]2C (relative stereo) [4a, cis-trans-nepetalactol]
stability in buffer ([2]; 10 mM MOPS pH 7.5, 16 h): stable | stability in buffer ([2]; 0.5 M MOPS pH 7.5, 16 h): stable | increase in Km caused by the T154G substitution ([3]; NEPS1-T154G versus NEPS1-WT): 150 fold | Kcat or V (kcat, substrate concentration varied) [3, 4]: 0.0804 ± 0.005 s⁻¹ | Km [3, 4]: 251 ± 37 µM | Kcat or V (kcat, substrate concentration varied) [1, 5]: 0.148 ± 0.002 s⁻¹ | Km [1, 5]: 1.6 ± 0.1 µM

CC1=COC(O)[C@H]2[C@@H](C)CC[C@@H]12 (relative stereo) [4b, cis-cis-nepetalactol]
stability in buffer ([2]; 10 mM MOPS pH 7.5, 16 h): mostly stable | stability in buffer ([2]; 0.5 M MOPS pH 7.5, 16 h): not stable | Kcat or V (kcat, substrate concentration varied) [1, 5]: 0.32 ± 0.01 s⁻¹ | Km [1, 5]: 4.9 ± 0.8 µM

NC(=O)c1ccc[n+]([C@@H]2O[C@H](COP(=O)([O-])OP(=O)(O)OC[C@H]3O[C@@H](n4cnc5c(N)ncnc54)[C@H](O)[C@@H]3O)[C@@H](O)[C@H]2O)c1 [NAD+, oxidized nicotinamide adenine dinucleotide, reference compound]
Kcat or V (kcat, substrate concentration varied) [3, 6]: 0.0599 ± 0.002 s⁻¹ | Km [3, 6]: 26 ± 4 µM | Kcat or V (kcat, substrate concentration varied) [1, 7]: 0.173 ± 0.003 s⁻¹ | Km [1, 7]: 3.5 ± 0.3 µM

NC(=O)c1ccc[n+]([C@@H]2O[C@H](COP(=O)([O-])OP(=O)(O)OC[C@H]3O[C@@H](n4cnc5c(N)ncnc54)[C@H](OP(=O)(O)O)[C@@H]3O)[C@@H](O)[C@H]2O)c1 [NADP+, reference compound]
Kcat or V (velocity V, single substrate concentration) ([1]; co-substrate 4a 0.1 mM): 0.020 ± 0.005 s⁻¹
